From PubChem BioAssay AID330 (DTP/NCI, 2004)
“And” between values parts separate entries of the source, which are not always exact repeats. Identical values can stand only once. Toxic doses and inconclusive results are not listed. How the source made its calls: active means survival T/C of 150% or more; inactive means T/C below 125% in these data.

Test system: P388 leukemia ip, CD2F1 mice, survival T/C
Experiment: NCI In Vivo Anticancer Drug Screen. Data for tumor model P388 Leukemia (intraperitoneal) in CD2F1 (CDF1) mice
Details: endpoint: median survival time, higher = longer survival
In short: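 Mice carrying the transplanted tumor received test compound or vehicle. Survival was recorded in each group, and the value is the treated-group measurement divided by that of the vehicle-treated control group.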

[1] = dose: 12.5 mg/kg/injection, schedule: Q04DX003 (ip), vehicle: saline
[2] = dose: 25.0 mg/kg/injection, schedule: Q04DX003 (ip), vehicle: saline
[3] = dose: 50.0 mg/kg/injection, schedule: Q04DX003 (ip), vehicle: saline
[4] = dose: 60.0 mg/kg/injection, schedule: Q01DX005 (ip), vehicle: saline with Tween-80
[5] = dose: 120.0 mg/kg/injection, schedule: Q01DX005 (ip), vehicle: saline with Tween-80
[6] = dose: 240.0 mg/kg/injection, schedule: Q01DX005 (ip), vehicle: saline with Tween-80
[7] = dose: 50.0 mg/kg/injection, schedule: Q01DX005 (ip), vehicle: saline with Tween-80
[8] = dose: 100.0 mg/kg/injection, schedule: Q01DX005 (ip), vehicle: saline with Tween-80
[9] = dose: 200.0 mg/kg/injection, schedule: Q01DX005 (ip), vehicle: saline with Tween-80
[10] = dose: 50.0 mg/kg/injection, schedule: Q01DX009 (ip), vehicle: saline with Tween-80
[11] = dose: 100.0 mg/kg/injection, schedule: Q01DX009 (ip), vehicle: saline with Tween-80
[12] = dose: 200.0 mg/kg/injection, schedule: Q01DX009 (ip), vehicle: saline with Tween-80
[13] = dose: 100.0 mg/kg/injection, schedule: Q04DX003 (ip), vehicle: Klucel (hydroxypropylcellulose) (HPC)
[14] = dose: 12.5 mg/kg/injection, schedule: Q01DX009 (ip), vehicle: saline with Tween-80
[15] = dose: 25.0 mg/kg/injection, schedule: Q01DX009 (ip), vehicle: saline with Tween-80
[16] = dose: 50.0 mg/kg/injection, schedule: Q01DX005 (ip), vehicle: Klucel (hydroxypropylcellulose) (HPC)
[17] = dose: 100.0 mg/kg/injection, schedule: Q01DX005 (ip), vehicle: Klucel (hydroxypropylcellulose) (HPC)
[18] = dose: 200.0 mg/kg/injection, schedule: Q01DX005 (ip), vehicle: Klucel (hydroxypropylcellulose) (HPC)

Measured: T/C

CN=C1N[N+]2=CCCCC2S1 (centres undefined)
inactive: [1] 102 % of control | dose: 15.0 mg/kg/injection, schedule: Q01DX009 (ip), vehicle: saline 100 % of control and 101 % of control | [2] 104 % of control | dose: 30.0 mg/kg/injection, schedule: Q01DX009 (ip), vehicle: saline 92 % of control and 97 % of control | [3] 97 % of control | dose: 60.0 mg/kg/injection, schedule: Q01DX009 (ip), vehicle: saline 114 % of control and 96 % of control | dose: 120.0 mg/kg/injection, schedule: Q01DX009 (ip), vehicle: saline 120 % of control and 96 % of control

O=C1OC[C@@H]2[C@H]1[C@H]1O[C@@H]2c2cc3ccccc3cc21
inactive: [4] 104 % of control | [5] 101 % of control | [6] 101 % of control

CCOC(=O)c1c(C#N)c2ccccc2n1O
inactive: dose: 25.0 mg/kg/injection, schedule: Q01DX001 (ip), vehicle: distilled water + Tween-80 110 % of control | dose: 50.0 mg/kg/injection, schedule: Q01DX001 (ip), vehicle: distilled water + Tween-80 106 % of control | dose: 100.0 mg/kg/injection, schedule: Q01DX001 (ip), vehicle: distilled water + Tween-80 110 % of control | dose: 100.0 mg/kg/injection, schedule: Q01DX001 (ip), vehicle: saline with Tween-80 97 % of control | dose: 400.0 mg/kg/injection, schedule: Q01DX001 (ip), vehicle: saline with Tween-80 99 % of control

CN1NC(c2ccccc2)=NN=C1c1ccccc1
inactive: [4] 104 % of control | [5] 102 % of control | [6] 105 % of control

C[As](C)SC(CO)C1OC2OC(C)(C)OC2C1O (centres undefined)
inactive: dose: 50.0 mg/kg/injection, schedule: Q01DX009 (ip), vehicle: saline + alcohol 108 % of control

CC1=C(c2ccccc2)OC(=O)C(Cl)(Cl)C1N(c1ccccc1)c1ccccc1 (centres undefined)
inactive: [7] 88 % of control | [8] 93 % of control | [9] 93 % of control

Clc1ccccc1N=NN1CCN(c2ccccc2)CC1
inactive: [10] 88 % of control | [11] 102 % of control | [12] 93 % of control

Cc1ncc([N+](=O)[O-])n1CCSC(Cl)(Cl)Cl
inactive: [1] 99 % of control and 112 % of control | [2] 102 % of control and 111 % of control | [3] 112 % of control and 118 % of control | dose: 100.0 mg/kg/injection, schedule: Q04DX003 (ip), vehicle: saline 112 % of control and 89 % of control

COc1ccc(NC(=S)NC(=O)c2ccccc2)cc1OC
inactive: [10] 99 % of control | [11] 100 % of control | [12] 107 % of control

[N-]=[N+]=Nc1ccccc1C(=O)NCCNC(=O)c1ccccc1N=[N+]=[N-]
inactive: dose: 6.25 mg/kg/injection, schedule: Q01DX005 (ip), vehicle: saline with Tween-80 94 % of control | dose: 12.5 mg/kg/injection, schedule: Q01DX005 (ip), vehicle: saline with Tween-80 91 % of control | [9] 87 % of control

Cc1cn(C)c2c1-c1[nH]ncc1CC2
inactive: dose: 50.0 mg/kg/injection, schedule: Q04DX003 (ip), vehicle: Klucel (hydroxypropylcellulose) (HPC) 100 % of control | [13] 99 % of control | dose: 200.0 mg/kg/injection, schedule: Q04DX003 (ip), vehicle: Klucel (hydroxypropylcellulose) (HPC) 103 % of control

Cc1ccc(-n2c3nc(=O)n(C)c(=O)c-3nc3ccccc32)cc1C
inactive: dose: 100.0 mg/kg/injection, schedule: Q01DX001 (ip), vehicle: Klucel (hydroxypropylcellulose) (HPC) 95 % of control | dose: 200.0 mg/kg/injection, schedule: Q01DX001 (ip), vehicle: Klucel (hydroxypropylcellulose) (HPC) 92 % of control

COc1ccc2c(N3CCN(C(=O)C(Cl)(Cl)Cl)CC3)cc(C)nc2c1
inactive: [4] 103 % of control | [5] 104 % of control | [6] 102 % of control

NC1=C(O)C(=O)C(c2cccc3ccccc23)O1 (centres undefined)
inactive: [4] 98 % of control | [5] 93 % of control | [6] 88 % of control

CN(C)C(=O)c1cccc(COc2ccc(N3C(N)=NC(N)=NC3(C)C)cc2Cl)c1
inactive: dose: 4.0 mg/kg/injection, schedule: Q01DX001 (ip), vehicle: saline 96 % of control | dose: 8.0 mg/kg/injection, schedule: Q01DX001 (ip), vehicle: saline 99 % of control | dose: 8.0 mg/kg/injection, schedule: Q01DX009 (ip), vehicle: saline 107 % of control | dose: 16.0 mg/kg/injection, schedule: Q01DX001 (ip), vehicle: saline 95 % of control | dose: 16.0 mg/kg/injection, schedule: Q01DX009 (ip), vehicle: saline 100 % of control | dose: 16.0 mg/kg/injection, schedule: Q08DX002 (ip), vehicle: saline 100 % of control | dose: 32.0 mg/kg/injection, schedule: Q01DX001 (ip), vehicle: saline 93 % of control | dose: 32.0 mg/kg/injection, schedule: Q01DX009 (ip), vehicle: saline 111 % of control | dose: 32.0 mg/kg/injection, schedule: Q08DX002 (ip), vehicle: saline 110 % of control | dose: 64.0 mg/kg/injection, schedule: Q01DX001 (ip), vehicle: saline 96 % of control

CC1OC(OC2C(O[C@H]3CC[C@@]4(C)C(=CC[C@H]5[C@@H]6C[C@@H]7O[C@]8(CC[C@H](C)CN8)[C@@H](C)[C@@H]7[C@@]6(C)CC[C@@H]54)C3)OC(CO)C(O)C2OC2OC(CO)C(O)C(O)C2O)C(O)C(O)C1O (some centres undefined)
inactive: dose: 6.25 mg/kg/injection, schedule: Q01DX009 (ip), vehicle: saline with Tween-80 90 % of control | [14] 86 % of control | [15] 90 % of control

Cc1ccc(OCC(COc2ccc(C)cc2)(COc2ccc(C)cc2)COc2ccc(C)cc2)cc1
inactive: [14] 86 % of control | [15] 86 % of control | [10] 86 % of control

COc1ccc2c(c1)C(=O)CC2
inactive: [16] 106 % of control | [17] 101 % of control | [18] 101 % of control

Nc1nccc(C(=O)c2ccccc2O)n1
inactive: dose: 50.0 mg/kg/injection, schedule: Q01DX009 (ip), vehicle: saline 98 % of control | dose: 100.0 mg/kg/injection, schedule: Q01DX009 (ip), vehicle: saline 95 % of control | dose: 200.0 mg/kg/injection, schedule: Q01DX009 (ip), vehicle: saline 99 % of control

c1cc2cc(c1)CSCc1cccc(c1)CSCc1cccc(c1)CSC2
inactive: dose: 50.0 mg/kg/injection, schedule: Q04DX002 (ip), vehicle: saline 96 % of control | dose: 100.0 mg/kg/injection, schedule: Q04DX002 (ip), vehicle: saline 93 % of control | dose: 200.0 mg/kg/injection, schedule: Q04DX002 (ip), vehicle: saline 93 % of control

CC(C)(C)OC(=O)N1CCCC1C(=O)O (centres undefined)
inactive: [16] 100 % of control | [17] 106 % of control | [18] 99 % of control

O=C(NCCCC1NC(=O)/C(=C(O)/C=C/C2CCCCC2)C1=O)OCc1ccccc1 (centres undefined)
inactive: [7] 100 % of control | [8] 95 % of control | [9] 100 % of control

COc1ccc(C(=O)CC(C(=O)O)c2ccc(OC)cc2)cc1 (centres undefined)
inactive: dose: 100.0 mg/kg/injection, schedule: Q04DX003 (ip), vehicle: saline with Tween-80 102 % of control | dose: 200.0 mg/kg/injection, schedule: Q04DX003 (ip), vehicle: saline with Tween-80 94 % of control | dose: 400.0 mg/kg/injection, schedule: Q04DX003 (ip), vehicle: saline with Tween-80 99 % of control

COc1cccc(C2c3cc4c(cc3OC(N3CCCC3)C2C)OCO4)c1O (centres undefined)
inactive: [4] 103 % of control | [5] 90 % of control | [6] 88 % of control

CC1(C)C(O)C(C)(C)C1O (centres undefined)
inactive: [14] 100 % of control | [15] 100 % of control | [10] 100 % of control

Oc1c(Cl)cc(C(c2cc(Cl)c(O)c(Cl)c2)C(c2cc(Cl)c(O)c(Cl)c2)c2cc(Cl)c(O)c(Cl)c2)cc1Cl
inactive: [13] 115 % of control

CN=C(NCCSCc1ccc2ccccc2n1)NS(=O)(=O)c1ccccc1
inactive: dose: 50.0 mg/kg/injection, schedule: Q01DX005 (ip), vehicle: saline 106 % of control | dose: 100.0 mg/kg/injection, schedule: Q01DX005 (ip), vehicle: saline 106 % of control | dose: 200.0 mg/kg/injection, schedule: Q01DX005 (ip), vehicle: saline 100 % of control

Cc1cc(=O)[nH]c2nc3ccccc3n12
inactive: [10] 95 % of control | [11] 96 % of control | [12] 100 % of control | dose: 400.0 mg/kg/injection, schedule: Q01DX009 (ip), vehicle: saline with Tween-80 104 % of control
